Results from ChEMBL document CHEMBL1201862, “PubChem BioAssay data set” (2004).
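Cultured in 96-well plates, cells were exposed to test compound for 48 hours across five concentrations. GI50 marks 50% less growth.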 Active and inactive are the calls of the source. Rule as the data show it: active = GI50 up to about 1.1 µM and inactive = higher.

How the values were obtained:
Test in all cases: NCI-60 cell line screen, 48 h
SN12C = system: SN12C
IGROV-1 = system: IGROV-1
NCI-H23 = system: NCI-H23
HCT-116 = system: HCT-116
K562 = system: K562
RXF 393 = system: RXF 393
SF-268 = system: SF-268
OVCAR-4 = system: OVCAR-4
NCI-H460 = system: NCI-H460
SK-MEL-28 = system: SK-MEL-28
M14 = system: M14
CCRF-CEM = system: CCRF-CEM
OVCAR-3 = system: OVCAR-3
HT-29 = system: HT-29
UO-31 = system: UO-31
KM12 = system: KM12
SW-620 = system: SW-620
HOP-92 = system: HOP-92
SK-OV-3 = system: SK-OV-3
OVCAR-8 = system: OVCAR-8

Measured: GI50

COc1cccc(N2C(=O)CSC2c2c[nH]c3ccccc23)c1 (stereo not given)
inactive: SN12C > 100 µM | IGROV-1 > 100 µM | NCI-H23 > 100 µM | HCT-116 > 100 µM | K562 > 100 µM | RXF 393 > 100 µM | SF-268 > 100 µM | OVCAR-4 73.6 µM | NCI-H460 > 100 µM | SK-MEL-28 > 100 µM | M14 > 100 µM | CCRF-CEM > 100 µM | OVCAR-3 > 100 µM | HT-29 > 100 µM | UO-31 > 100 µM | KM12 > 100 µM | SW-620 > 100 µM | HOP-92 66.1 µM | SK-OV-3 > 100 µM | OVCAR-8 > 100 µM

Cc1ccc(NC(=O)CC/C(CC(=O)C(C)(C)C)=N/NC(=O)c2cc3ccccc3cc2O)cc1C
inactive: SN12C 33.6 µM | IGROV-1 32.8 µM | NCI-H23 19.6 µM | HCT-116 40.3 µM | K562 > 10 µM | RXF 393 35.2 µM | SF-268 33.3 µM | OVCAR-4 30.8 µM | NCI-H460 39.4 µM | SK-MEL-28 80 µM | M14 32.5 µM | CCRF-CEM 16.2 µM | OVCAR-3 32.7 µM | HT-29 41.7 µM | UO-31 38.6 µM | KM12 36.6 µM | SW-620 48 µM | HOP-92 47.6 µM | SK-OV-3 50 µM | OVCAR-8 26.8 µM
